Measurements: paper PMC10382042, “Brevetoxin versus Brevenal Modulation of Human Nav1 Channels” (Marine Drugs, 2023)

Legend:
[1] = test system: human Nav1.2, Nav1.4, Nav1.5, Nav1.7; assay: in vitro; type: cell-based; conditions: human; all Nav subtypes, Ipeak and Ilate; read-out: pI/EC50, range over Nav currents
Description: (§1) Functional modulation of recombinant human voltage-gated sodium (Nav) channels exposed to marine PbTx-3 and brevenal was assessed by automated patch-clamp electrophysiology. Neuronal Nav1.2 (CNS) and Nav1.7 (PNS), in addition to muscle Nav1.4 (skeletal) and Nav1.5 (cardiac) sodium channels, were patch-clamped in mammalian cells. Whole-cell currents mediated by human Nav1.4 and Nav1.7 overexpressed in CHO-K1 cells, as well as human Nav1.2 and Nav1.5 overexpressed in HEK293 cells, were recorded at room temperature. Currents were elicited by 25 ms test pulses to −20 mV from a holding potential (Vh) of −120 mV, delivered for 5 min at 0.1 Hz, after each full-bath solution exchange to allow current amplitude and kinetics to reach a steady state.
(§2) Nav currents were evoked by a 25 ms test pulse to −20 mV (Vh = −120 mV; 0.1 Hz). Extracellular drug applications were performed by exchanging the whole bath with the test compounds diluted in extracellular solution to the required concentration during constant monitoring (25 ms, −20 mV, Vh −120 mV, 0.1 Hz). The control solution included 0.1% ethanol to account for non-specific vehicle effects. For concentration–response curves (CRCs), compounds at incrementally higher concentrations were applied to the extracellular bath solution and allowed to equilibrate for 5 min. The average current amplitude from the last five test pulses at each concentration was used for analysis.
(§3) APC data were analyzed using PatchMaster (Nanion) and Igor (WaveMetrics, Portland, OR, USA) software. Nav peak and late currents measured in the presence of increasing amounts of PbTx-3 and brevenal were divided by the current in control conditions (ICtr) to generate CRCs. […]

[2] = test system: human Nav channels (Nav1.2, Nav1.4, Nav1.5, Nav1.7); assay: in vitro; type: cell-based
Description: as §1, §2, §3

| SMILES | EC50 [1] | fold enhancement of late currents mediated by Nav1.2, Nav1.4, and Nav1.5 [2] | orders of magnitude more potent than brevenal at modulating Nav currents [2] |
| --- | --- | --- | --- |
| C=C/C=C\CC[C@H]1O[C@H]2CC[C@@]3(C)O[C@H]4[C@@H](O)C[C@@]5(C)O[C@@H](CC/C=C(C)/C(C)=C/C=O)[C@@H](C)C[C@H]5O[C@@H]4C[C@@H]3O[C@@H]2CC[C@@]1(C)O [Brevenal] | 0.01 to 10 µM |  |  |
| C=C(CO)C[C@@H]1C[C@H](O)[C@]2(C)OC3CC4OC5C[C@]6(C)O[C@]7(C)CCC8OC9C[C@]%10(C)OC%11C(C)=CC(=O)OC%11CC%10OC9C[C@@H](C)C8OC7CC6O[C@@]5(C)C/C=C\C4OC3CC2O1 (stereo partly drawn) [PbTx-3, Brevetoxin PbTx-3] |  | 2–4 fold | 1–3 orders of magnitude |
